Measured values as given in patent US10800741B2 (ANCUREALL PHARMACEUTICAL (SHANGHAI) CO., LTD., priority 2017, dated 2020).

What was measured:
[1] = test system: human intestinal cancer cell line HCT116 (KRAS G13D mutation); experiment: Growth inhibition in combination with MEK1/2 inhibitor Trametinib, HCT116 (KRAS G13D mutation); format: cell-based; settings: 5 days
Protocol: (§1) Test Example 5 Synergistic Inhibition Effect of the Present Compounds in Combination with MEK1/2 Inhibitor on the Growth of RAS Mutant Tumor Cells In Vitro
(§2) The cell culture, drug treatment and MTT assay of human intestinal cancer cell line HCT116 (KRAS G13D mutation) and human non-small cell lung cancer cell line NCI-H1299 (NRAS Q61K mutation) were performed according to the method of test example 1. Cells were treated with the MEK1/2 inhibitor Trametinib at 25 nM, 2.5 nM and 0.25 nM alone or in combination with compound 66 or 125 of the present invention (5 days).

[2] = test system: human non-small cell lung cancer cell line NCI-H1299 (NRAS Q61K mutation); experiment: Growth inhibition in combination with MEK1/2 inhibitor Trametinib, NCI-H1299 (NRAS Q61K mutation); format: cell-based; settings: 5 days
Protocol: as §1, §2

protein kinases [3] = biological target: T1, protein kinases (Homo sapiens, UniProt P06241); experiment: KINOMEscan in vitro binding to 468 labeled protein kinases; settings: FYN, read-out: Test compound/solvent control (%)
T1 construct: purchased Discovery X company (USA), KINOMEscan screening platform
T1 sequence (P06241 whole entry): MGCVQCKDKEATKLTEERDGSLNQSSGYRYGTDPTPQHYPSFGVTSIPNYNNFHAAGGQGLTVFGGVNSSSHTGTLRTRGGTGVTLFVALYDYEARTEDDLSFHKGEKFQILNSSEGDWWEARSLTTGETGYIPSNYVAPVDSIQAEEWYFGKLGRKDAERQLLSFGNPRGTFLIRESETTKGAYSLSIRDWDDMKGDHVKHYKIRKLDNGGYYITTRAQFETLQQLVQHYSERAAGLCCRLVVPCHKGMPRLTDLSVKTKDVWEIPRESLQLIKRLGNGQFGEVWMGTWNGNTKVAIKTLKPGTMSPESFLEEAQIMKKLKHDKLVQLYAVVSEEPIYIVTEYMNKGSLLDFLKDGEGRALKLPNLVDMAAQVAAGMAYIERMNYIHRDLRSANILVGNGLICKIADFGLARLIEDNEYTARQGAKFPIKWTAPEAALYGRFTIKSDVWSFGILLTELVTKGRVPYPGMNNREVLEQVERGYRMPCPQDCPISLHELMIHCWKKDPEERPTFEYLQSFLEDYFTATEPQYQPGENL
Method in brief: (§3)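 Duplicate in vitro binding reactions at 1 nM, 10 nM and 1000 nM compound against a panel of 468 labelled protein kinases (KINOMEscan). Binding expressed relative to solvent control as a percentage, stronger affinity giving a lower value.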

protein kinases [4] = biological target: T2, protein kinases (Homo sapiens, UniProt P36888, D835H); experiment: as above; settings: FLT3(D835H), read-out: Test compound/solvent control (%)
T2 construct: purchased Discovery X company (USA), KINOMEscan screening platform
T2 sequence (P36888 27-993 D835H): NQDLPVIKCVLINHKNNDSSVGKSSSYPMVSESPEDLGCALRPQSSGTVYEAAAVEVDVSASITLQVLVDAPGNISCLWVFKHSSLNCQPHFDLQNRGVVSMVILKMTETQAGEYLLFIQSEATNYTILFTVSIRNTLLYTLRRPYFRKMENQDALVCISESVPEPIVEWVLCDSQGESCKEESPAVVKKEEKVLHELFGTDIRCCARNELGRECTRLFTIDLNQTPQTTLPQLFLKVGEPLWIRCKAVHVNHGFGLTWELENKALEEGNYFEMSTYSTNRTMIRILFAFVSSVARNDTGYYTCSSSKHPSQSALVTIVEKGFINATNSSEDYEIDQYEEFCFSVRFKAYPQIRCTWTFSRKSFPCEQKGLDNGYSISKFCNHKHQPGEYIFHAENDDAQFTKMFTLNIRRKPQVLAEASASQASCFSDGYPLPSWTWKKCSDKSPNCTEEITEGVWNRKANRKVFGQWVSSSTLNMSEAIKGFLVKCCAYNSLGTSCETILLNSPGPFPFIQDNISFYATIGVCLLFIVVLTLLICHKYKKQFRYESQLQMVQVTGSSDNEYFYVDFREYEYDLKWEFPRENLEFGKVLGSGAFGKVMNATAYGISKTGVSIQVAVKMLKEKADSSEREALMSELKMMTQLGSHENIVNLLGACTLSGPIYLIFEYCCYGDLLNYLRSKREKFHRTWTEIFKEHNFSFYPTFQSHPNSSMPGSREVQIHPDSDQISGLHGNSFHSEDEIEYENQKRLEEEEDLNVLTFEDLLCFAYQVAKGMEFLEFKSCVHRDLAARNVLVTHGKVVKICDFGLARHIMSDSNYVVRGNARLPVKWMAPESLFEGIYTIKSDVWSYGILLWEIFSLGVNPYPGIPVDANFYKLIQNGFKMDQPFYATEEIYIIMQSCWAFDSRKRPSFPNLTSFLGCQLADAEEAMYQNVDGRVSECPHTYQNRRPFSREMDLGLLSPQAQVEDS
Method in brief: as §3

[5] = compound 7.8 nM + Trametinib 0.25 nM
[6] = compound 7.8 nM + Trametinib 2.5 nM
[7] = compound 7.8 nM + Trametinib 25 nM
[8] = compound 15.6 nM + Trametinib 0.25 nM
[9] = compound 15.6 nM + Trametinib 2.5 nM
[10] = compound 15.6 nM + Trametinib 25 nM

- remaining binding at 0.001 µM (protein kinases [3]; 1 nM): 94%
- remaining binding at 0.01 µM (protein kinases [3]; 10 nM): 41%
- remaining binding at 1 µM (protein kinases [3]; 1000 nM): 0%
- remaining binding at 0.001 µM (protein kinases [4]; 1 nM): 79%
- remaining binding at 0.01 µM (protein kinases [4]; 10 nM): 15%
- remaining binding at 1 µM (protein kinases [4]; 1000 nM): 1.1%
Compound: COCCOc1cc2nccc(Oc3ccc(NC(=O)Nc4cc(C(C)(C)C)n[nH]4)c(Cl)c3)c2cc1NC(C)=O [Compound 66, N-[4-{4-[3-(5-tert-butyl-2H-pyrazol-3-yl)-ureido]-3-chloro-phenoxy}-7-(2-methoxy-ethoxy)-quinolin-6-yl]-acetamide]
- inhibition at 0.0078 µM ([1]; Homo sapiens, HCT-116, 120 h, compound 7.8 nM alone (solvent instead of Trametinib), read-out: cell growth inhibition (percentage)): 7.67%
- inhibition at 0.0156 µM ([1]; Homo sapiens, HCT-116, 120 h, compound 15.6 nM alone (solvent instead of Trametinib), read-out: cell growth inhibition (percentage)): 22%
- cell growth inhibition (percentage) [1, 5]: 62.24%
- cell growth inhibition (percentage) [1, 6]: 73.79%
- cell growth inhibition (percentage) [1, 7]: 80.52%
- cell growth inhibition (percentage) [1, 8]: 66.72%
- cell growth inhibition (percentage) [1, 9]: 77.07%
- cell growth inhibition (percentage) [1, 10]: 81.03%
- inhibition at 0.0078 µM ([2]; Homo sapiens, NCI-H1299, 120 h, compound 7.8 nM alone (solvent instead of Trametinib), read-out: cell growth inhibition (percentage)): 1.39%
- inhibition at 0.0156 µM ([2]; Homo sapiens, NCI-H1299, 120 h, compound 15.6 nM alone (solvent instead of Trametinib), read-out: cell growth inhibition (percentage)): 4.59%
- cell growth inhibition (percentage) [2, 5]: 11.67%
- cell growth inhibition (percentage) [2, 6]: 20.73%
- cell growth inhibition (percentage) [2, 7]: 37.88%
- cell growth inhibition (percentage) [2, 8]: 16.82%
- cell growth inhibition (percentage) [2, 9]: 26.10%
- cell growth inhibition (percentage) [2, 10]: 42.52%
